From ChEMBL document CHEMBL1130785, “A labeled guanidine ligand for studying sweet taste” (Bioorg Med Chem Lett, 1998)

Test: The compound was evaluated for binding affinity towards monoclonal antibody NC10.14 using competitive radioimmunoassay.

Compound `N#Cc1ccc(N/C(=N\CC(=O)O)NC(c2ccccc2)c2ccccc2)cc1` has a Kd of 18 nM.
